Measurements taken from article PMC4490784, “Compensatory induction of MYC expression by sustained CDK9 inhibition via a BRD4-dependent mechanism” (eLife, 2015).

How the values were obtained:
Assay in all cases: KINOMEscan binding assay
[1] = target: T1, ABL1(E255K)-nonphosphorylated (Homo sapiens, UniProt P00519, E255K); settings: 10 µM i-CDK9; read-out: % Retention on Solid Support
T1 construct: purchased DiscoveRx KINOMEscan
Procedure: (§1) As there are no commercial or in-house kinase assays available for CDK3, CDK5, CDK11 and CDK13, the inhibitory abilities of i-CDK9 toward these CDKs were thus evaluated in the DiscoveRx KINOMEscan assay, which is based on a proprietary active site-directed competition-binding platform ([Fabian et al., 2005]).
(§2) The inhibitory activity of i-CDK9 for CDK1-CycB (Upstate/Millipore), CDK2-CycA (Invitrogen), CDK4-CycD1 (Novartis), CDK7-CycH-MAT1 (Invitrogen), and CDK9-CycT1 (Invitrogen) was assessed in the AlphaScreen (PerkinElmer, Inc)-based kinase assay developed at Novartis. Briefly, each CDK–cyclin pair was pre-incubated with i-CDK9 for 15 min, followed by addition of kinase substrates (ELK for CDK1 and CDK2, RB for CDK4, and CDK7tide for CDK7 and CDK9). The mixture was incubated at room temperature for additional 4–5 hr. The reaction was stopped and read on Envision (PerkinElmer, Inc). Selectivity against a large panel of over 400 kinases was evaluated using the KINOMEscan platform (DiscoveRx, CA) employing a proprietary active site-directed competition binding assay ([Fabian et al., 2005]). The assay was conducted at two different concentrations of i-CDK9 (1 and 10 µM) by DiscoveRx.

PIM2 = target: T2, PIM2 (Homo sapiens, UniProt Q9P1W9); settings: read-out: % Retention on Solid Support
T2 construct: purchased DiscoveRx KINOMEscan
Procedure: as §1, §2

[2] = target: T3, ABL1(E255K)-phosphorylated (Homo sapiens, UniProt P00519, E255K); settings: 1 µM i-CDK9; read-out: % Retention on Solid Support
T3 construct: purchased DiscoveRx KINOMEscan
Procedure: as §1, §2

[3] = target: T4, RSK4(Kin.Dom.1-N-terminal) (Homo sapiens, UniProt Q9UK32)
T4 construct: RSK4(Kin.Dom.1-N-terminal); purchased DiscoveRx KINOMEscan
T4 sequence (Q9UK32 1-400 limits assumed): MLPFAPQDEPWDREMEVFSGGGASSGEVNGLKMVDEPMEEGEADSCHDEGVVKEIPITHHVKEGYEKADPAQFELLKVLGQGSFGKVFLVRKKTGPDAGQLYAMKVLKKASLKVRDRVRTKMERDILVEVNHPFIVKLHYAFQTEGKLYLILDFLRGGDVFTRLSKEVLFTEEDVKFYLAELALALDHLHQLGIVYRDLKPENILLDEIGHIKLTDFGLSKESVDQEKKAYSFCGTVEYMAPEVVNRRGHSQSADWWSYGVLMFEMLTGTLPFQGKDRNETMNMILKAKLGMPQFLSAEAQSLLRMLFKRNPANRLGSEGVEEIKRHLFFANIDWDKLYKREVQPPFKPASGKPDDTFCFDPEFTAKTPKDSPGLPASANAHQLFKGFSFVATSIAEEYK
Procedure: as §1, §2

ICK = target: T5, ICK (Homo sapiens, UniProt Q9UPZ9); settings: read-out: % Retention on Solid Support
T5 construct: purchased DiscoveRx KINOMEscan
Procedure: as §1, §2

JNK3 = target: T6, JNK3 (Homo sapiens, UniProt P53779)
T6 construct: purchased DiscoveRx KINOMEscan
Procedure: as §1, §2

PRKCQ = target: T7, PRKCQ (Homo sapiens, UniProt Q04759); settings: read-out: % Retention on Solid Support
T7 construct: purchased DiscoveRx KINOMEscan
Procedure: as §1, §2

MAP3K3 = target: T8, MAP3K3 (Homo sapiens, UniProt Q99759); settings: read-out: % Retention on Solid Support
T8 construct: purchased DiscoveRx KINOMEscan
Procedure: as §1, §2

CSNK2A2 = target: T9, CSNK2A2 (Homo sapiens, UniProt P19784); settings: read-out: % Retention on Solid Support
T9 construct: purchased DiscoveRx KINOMEscan
T9 sequence (P19784 whole entry): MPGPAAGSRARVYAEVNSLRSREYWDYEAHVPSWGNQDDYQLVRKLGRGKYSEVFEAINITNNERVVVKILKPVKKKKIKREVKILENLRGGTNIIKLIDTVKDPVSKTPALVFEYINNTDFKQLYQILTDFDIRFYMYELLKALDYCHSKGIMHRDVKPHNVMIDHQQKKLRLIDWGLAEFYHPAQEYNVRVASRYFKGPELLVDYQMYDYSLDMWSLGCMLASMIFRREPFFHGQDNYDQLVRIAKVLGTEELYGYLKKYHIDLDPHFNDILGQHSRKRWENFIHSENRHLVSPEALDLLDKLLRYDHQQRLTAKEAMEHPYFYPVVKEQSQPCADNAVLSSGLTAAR
Procedure: as §1, §2

[4] = target: T10, RSK1(Kin.Dom.1-N-terminal) (Homo sapiens, UniProt Q15418); settings: read-out: % Retention on Solid Support
T10 construct: RSK1(Kin.Dom.1-N-terminal); purchased DiscoveRx KINOMEscan
Procedure: as §1, §2

MEK5 = target: T11, MEK5 (Homo sapiens, UniProt Q13163); settings: 1 µM i-CDK9; read-out: % Retention on Solid Support
T11 construct: purchased DiscoveRx KINOMEscan
Procedure: as §1, §2

[5] = target: RPS6KA4(Kin.Dom.2-C-terminal) (Homo sapiens, UniProt O75676); settings: read-out: % Retention on Solid Support
RPS6KA4(Kin.Dom.2-C-terminal), sequence (O75676 372-772 limits assumed): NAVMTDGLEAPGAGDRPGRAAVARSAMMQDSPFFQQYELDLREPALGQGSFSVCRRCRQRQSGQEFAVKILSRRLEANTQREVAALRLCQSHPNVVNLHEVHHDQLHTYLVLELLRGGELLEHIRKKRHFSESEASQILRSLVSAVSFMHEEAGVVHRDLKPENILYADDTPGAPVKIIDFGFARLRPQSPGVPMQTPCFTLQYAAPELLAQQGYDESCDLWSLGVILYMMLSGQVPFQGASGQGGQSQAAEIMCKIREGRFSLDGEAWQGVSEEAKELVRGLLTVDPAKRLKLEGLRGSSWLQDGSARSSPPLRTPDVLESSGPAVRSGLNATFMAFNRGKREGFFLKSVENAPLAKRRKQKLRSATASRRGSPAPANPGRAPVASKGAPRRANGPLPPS
Procedure: as §1, §2

EPHA2 = target: T12, EPHA2 (Homo sapiens, UniProt P29317); settings: read-out: % Retention on Solid Support
T12 construct: purchased DiscoveRx KINOMEscan
T12 sequence (P29317 24-976): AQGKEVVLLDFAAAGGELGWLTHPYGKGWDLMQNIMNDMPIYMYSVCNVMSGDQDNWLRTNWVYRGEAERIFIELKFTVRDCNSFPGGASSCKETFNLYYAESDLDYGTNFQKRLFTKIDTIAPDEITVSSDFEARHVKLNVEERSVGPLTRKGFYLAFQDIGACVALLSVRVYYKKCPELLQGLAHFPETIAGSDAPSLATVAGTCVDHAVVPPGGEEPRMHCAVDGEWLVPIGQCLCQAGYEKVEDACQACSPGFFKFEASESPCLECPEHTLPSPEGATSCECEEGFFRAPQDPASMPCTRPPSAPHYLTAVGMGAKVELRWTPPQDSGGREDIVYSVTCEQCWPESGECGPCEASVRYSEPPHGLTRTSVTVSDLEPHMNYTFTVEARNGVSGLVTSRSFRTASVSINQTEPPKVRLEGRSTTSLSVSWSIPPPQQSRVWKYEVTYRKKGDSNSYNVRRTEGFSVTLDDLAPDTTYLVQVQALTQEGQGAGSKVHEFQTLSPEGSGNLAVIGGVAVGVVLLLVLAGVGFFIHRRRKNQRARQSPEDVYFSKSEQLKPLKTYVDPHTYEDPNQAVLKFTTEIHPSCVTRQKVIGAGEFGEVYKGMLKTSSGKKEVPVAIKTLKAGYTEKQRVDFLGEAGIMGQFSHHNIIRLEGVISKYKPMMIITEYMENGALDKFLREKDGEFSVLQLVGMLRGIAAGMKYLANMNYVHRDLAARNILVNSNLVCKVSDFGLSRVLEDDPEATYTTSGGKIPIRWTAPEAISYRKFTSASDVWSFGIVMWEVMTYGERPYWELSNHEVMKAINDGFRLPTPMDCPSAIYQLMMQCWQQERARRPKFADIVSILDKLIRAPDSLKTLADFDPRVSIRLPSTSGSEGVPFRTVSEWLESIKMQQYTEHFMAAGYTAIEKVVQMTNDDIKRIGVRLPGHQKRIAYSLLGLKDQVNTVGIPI
Procedure: as §1, §2

RET(M918T) = target: T13, RET(M918T) (Homo sapiens, UniProt P07949, M918T); settings: read-out: % Retention on Solid Support
T13 construct: purchased DiscoveRx KINOMEscan
Procedure: as §1, §2

PKAC-beta = target: T14, PKAC-beta (Homo sapiens, UniProt P22694); settings: read-out: % Retention on Solid Support
T14 construct: purchased DiscoveRx KINOMEscan
Procedure: as §1, §2

AXL = target: T15, AXL (Homo sapiens, UniProt P30530); settings: read-out: % Retention on Solid Support
T15 construct: purchased DiscoveRx KINOMEscan
Procedure: as §1, §2

LIMK2 = target: T16, LIMK2 (Homo sapiens, UniProt P53671); settings: read-out: % Retention on Solid Support
T16 construct: purchased DiscoveRx KINOMEscan
T16 sequence (P53671 whole entry): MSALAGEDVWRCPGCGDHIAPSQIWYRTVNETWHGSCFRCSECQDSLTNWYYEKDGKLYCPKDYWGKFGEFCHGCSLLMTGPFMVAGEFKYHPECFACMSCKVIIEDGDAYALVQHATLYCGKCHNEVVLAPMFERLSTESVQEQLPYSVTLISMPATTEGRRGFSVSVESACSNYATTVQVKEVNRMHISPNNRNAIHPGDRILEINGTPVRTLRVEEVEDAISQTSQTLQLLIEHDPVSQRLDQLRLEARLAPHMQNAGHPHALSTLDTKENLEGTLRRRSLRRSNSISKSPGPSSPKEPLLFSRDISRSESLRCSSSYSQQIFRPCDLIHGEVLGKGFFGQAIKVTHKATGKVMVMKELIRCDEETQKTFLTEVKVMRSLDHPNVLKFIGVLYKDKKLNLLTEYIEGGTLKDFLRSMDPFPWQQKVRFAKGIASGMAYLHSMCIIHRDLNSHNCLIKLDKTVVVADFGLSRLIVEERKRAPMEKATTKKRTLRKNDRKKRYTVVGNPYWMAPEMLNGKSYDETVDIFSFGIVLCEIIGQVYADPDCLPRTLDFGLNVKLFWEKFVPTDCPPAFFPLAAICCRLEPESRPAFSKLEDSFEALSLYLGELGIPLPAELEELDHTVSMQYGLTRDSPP
Procedure: as §1, §2

PDGFRB = target: T17, PDGFRB (Homo sapiens, UniProt P09619); settings: read-out: % Retention on Solid Support
T17 construct: purchased DiscoveRx KINOMEscan
Procedure: as §1, §2

LYN = target: T18, LYN (Homo sapiens, UniProt P07948); settings: read-out: % Retention on Solid Support
T18 construct: purchased DiscoveRx KINOMEscan
T18 sequence (P07948 whole entry): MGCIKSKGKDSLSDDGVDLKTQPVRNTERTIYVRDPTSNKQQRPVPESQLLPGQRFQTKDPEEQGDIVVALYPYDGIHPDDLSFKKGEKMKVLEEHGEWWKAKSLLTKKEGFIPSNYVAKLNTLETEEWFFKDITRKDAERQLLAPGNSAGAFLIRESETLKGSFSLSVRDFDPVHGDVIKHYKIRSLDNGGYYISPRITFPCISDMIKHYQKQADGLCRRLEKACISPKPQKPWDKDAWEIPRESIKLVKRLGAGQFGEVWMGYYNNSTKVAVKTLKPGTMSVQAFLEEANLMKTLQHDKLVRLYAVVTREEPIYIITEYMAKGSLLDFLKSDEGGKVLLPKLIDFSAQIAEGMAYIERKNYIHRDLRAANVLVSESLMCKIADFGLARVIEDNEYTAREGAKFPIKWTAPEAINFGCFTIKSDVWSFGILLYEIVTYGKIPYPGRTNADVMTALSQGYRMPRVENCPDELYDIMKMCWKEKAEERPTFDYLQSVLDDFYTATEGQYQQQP
Procedure: as §1, §2

MTOR = target: T19, MTOR (Homo sapiens, UniProt P42345); settings: 1 µM i-CDK9; read-out: % Retention on Solid Support
T19 construct: purchased DiscoveRx KINOMEscan
Procedure: as §1, §2

BTK = target: T20, BTK (Homo sapiens, UniProt Q06187)
T20 construct: purchased DiscoveRx KINOMEscan
T20 sequence (Q06187 whole entry): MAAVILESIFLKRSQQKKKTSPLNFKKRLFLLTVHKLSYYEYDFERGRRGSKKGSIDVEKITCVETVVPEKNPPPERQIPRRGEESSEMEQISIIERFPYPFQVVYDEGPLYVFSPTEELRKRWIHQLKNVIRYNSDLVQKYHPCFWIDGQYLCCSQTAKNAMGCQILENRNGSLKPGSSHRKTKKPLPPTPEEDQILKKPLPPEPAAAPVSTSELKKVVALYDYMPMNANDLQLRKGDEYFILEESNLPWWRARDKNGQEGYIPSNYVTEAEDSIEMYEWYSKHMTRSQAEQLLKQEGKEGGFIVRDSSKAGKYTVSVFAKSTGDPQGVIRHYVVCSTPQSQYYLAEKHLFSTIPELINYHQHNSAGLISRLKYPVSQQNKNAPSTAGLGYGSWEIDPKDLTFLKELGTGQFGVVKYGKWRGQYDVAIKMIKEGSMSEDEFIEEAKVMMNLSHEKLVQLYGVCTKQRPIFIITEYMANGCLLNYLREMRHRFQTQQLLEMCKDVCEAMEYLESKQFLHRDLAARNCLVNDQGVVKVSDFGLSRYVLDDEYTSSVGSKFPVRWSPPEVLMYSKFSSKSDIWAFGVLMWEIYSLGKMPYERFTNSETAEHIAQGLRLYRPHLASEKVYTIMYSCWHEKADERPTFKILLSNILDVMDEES
Procedure: as §1, §2

MERTK = target: T21, MERTK (Homo sapiens, UniProt Q12866); settings: read-out: % Retention on Solid Support
T21 construct: purchased DiscoveRx KINOMEscan
Procedure: as §1, §2

CSNK1D = target: T22, CSNK1D (Homo sapiens, UniProt P48730); settings: read-out: % Retention on Solid Support
T22 construct: purchased DiscoveRx KINOMEscan
T22 sequence (P48730 whole entry): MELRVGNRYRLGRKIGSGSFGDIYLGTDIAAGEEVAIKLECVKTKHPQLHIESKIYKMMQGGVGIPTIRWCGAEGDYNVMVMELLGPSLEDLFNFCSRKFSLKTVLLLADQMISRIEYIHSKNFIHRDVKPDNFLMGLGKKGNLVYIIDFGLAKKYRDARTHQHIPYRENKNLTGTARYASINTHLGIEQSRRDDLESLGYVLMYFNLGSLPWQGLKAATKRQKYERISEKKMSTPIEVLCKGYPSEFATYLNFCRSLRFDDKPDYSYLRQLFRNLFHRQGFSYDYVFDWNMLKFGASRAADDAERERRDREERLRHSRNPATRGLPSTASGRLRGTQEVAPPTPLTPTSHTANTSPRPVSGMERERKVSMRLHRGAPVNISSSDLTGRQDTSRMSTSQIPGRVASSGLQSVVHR
Procedure: as §1, §2

AKT1 = target: T23, AKT1 (Homo sapiens, UniProt P31749); settings: read-out: % Retention on Solid Support
T23 construct: purchased DiscoveRx KINOMEscan
T23 sequence (P31749 whole entry): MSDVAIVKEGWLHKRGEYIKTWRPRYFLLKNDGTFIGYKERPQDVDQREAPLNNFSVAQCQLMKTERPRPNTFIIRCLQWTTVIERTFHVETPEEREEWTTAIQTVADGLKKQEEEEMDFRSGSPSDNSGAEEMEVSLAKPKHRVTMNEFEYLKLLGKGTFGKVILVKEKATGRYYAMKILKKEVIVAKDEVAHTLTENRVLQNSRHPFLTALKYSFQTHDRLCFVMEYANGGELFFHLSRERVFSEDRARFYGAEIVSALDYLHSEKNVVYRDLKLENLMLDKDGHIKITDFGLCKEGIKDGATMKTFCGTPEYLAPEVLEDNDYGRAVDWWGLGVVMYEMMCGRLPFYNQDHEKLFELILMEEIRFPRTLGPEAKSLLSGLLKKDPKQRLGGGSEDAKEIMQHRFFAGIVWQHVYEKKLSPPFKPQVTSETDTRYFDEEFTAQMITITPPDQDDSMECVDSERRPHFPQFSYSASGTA
Procedure: as §1, §2

VRK2 = target: T24, VRK2 (Homo sapiens, UniProt Q86Y07); settings: 1 µM i-CDK9; read-out: % Retention on Solid Support
T24 construct: purchased DiscoveRx KINOMEscan
Procedure: as §1, §2

BMPR2 = target: T25, BMPR2 (Homo sapiens, UniProt Q13873)
T25 construct: purchased DiscoveRx KINOMEscan
Procedure: as §1, §2

HIPK3 = target: T26, HIPK3 (Homo sapiens, UniProt Q9H422); settings: read-out: % Retention on Solid Support
T26 construct: purchased DiscoveRx KINOMEscan
Procedure: as §1, §2

MET(M1250T) = target: T27, MET(M1250T) (Homo sapiens, UniProt P08581, M1250T)
T27 construct: purchased DiscoveRx KINOMEscan
Procedure: as §1, §2

ERN1 = target: T28, ERN1 (Homo sapiens, UniProt O75460); settings: read-out: % Retention on Solid Support
T28 construct: purchased DiscoveRx KINOMEscan
Procedure: as §1, §2

N[C@H]1CC[C@H](Nc2cc(-c3cccc(NCc4cccc(F)c4)n3)c(Cl)cn2)CC1 [i-CDK9, N2′-(trans-4-aminocyclohexyl)-5′-chloro-N6-(3-fluorobenzyl)-2,4′-bipyridine-2′,6-diamine]
remaining binding at 10 µM [1]: 100%
remaining binding at 1 µM (PIM2; 1 µM i-CDK9): 96%
remaining binding at 10 µM (PIM2; 10 µM i-CDK9): 22%
remaining binding at 1 µM [2]: 74%
% Retention on Solid Support ([3]; 1 µM i-CDK9): 70%
% Retention on Solid Support ([3]; 10 µM i-CDK9): 100%
remaining binding at 1 µM (ICK; 1 µM i-CDK9): 85%
remaining binding at 10 µM (ICK; 10 µM i-CDK9): 3%
% Retention on Solid Support (JNK3; 1 µM i-CDK9): 94%
% Retention on Solid Support (JNK3; 10 µM i-CDK9): 34%
remaining binding at 1 µM (PRKCQ; 1 µM i-CDK9): 100%
remaining binding at 10 µM (PRKCQ; 10 µM i-CDK9): 88%
remaining binding at 1 µM (MAP3K3; 1 µM i-CDK9): 100%
remaining binding at 10 µM (MAP3K3; 10 µM i-CDK9): 93%
remaining binding at 1 µM (CSNK2A2; 1 µM i-CDK9): 100%
remaining binding at 10 µM (CSNK2A2; 10 µM i-CDK9): 78%
remaining binding at 1 µM ([4]; 1 µM i-CDK9): 100%
remaining binding at 10 µM ([4]; 10 µM i-CDK9): 82%
remaining binding at 1 µM (MEK5): 100%
remaining binding at 1 µM ([5]; 1 µM i-CDK9): 100%
remaining binding at 10 µM ([5]; 10 µM i-CDK9): 74%
remaining binding at 1 µM (EPHA2; 1 µM i-CDK9): 100%
remaining binding at 10 µM (EPHA2; 10 µM i-CDK9): 100%
remaining binding at 1 µM (RET(M918T); 1 µM i-CDK9): 81%
remaining binding at 10 µM (RET(M918T); 10 µM i-CDK9): 73%
remaining binding at 1 µM (PKAC-beta; 1 µM i-CDK9): 80%
remaining binding at 10 µM (PKAC-beta; 10 µM i-CDK9): 80%
remaining binding at 1 µM (AXL; 1 µM i-CDK9): 89%
remaining binding at 10 µM (AXL; 10 µM i-CDK9): 80%
remaining binding at 1 µM (LIMK2; 1 µM i-CDK9): 100%
remaining binding at 10 µM (LIMK2; 10 µM i-CDK9): 100%
remaining binding at 1 µM (PDGFRB; 1 µM i-CDK9): 74%
remaining binding at 10 µM (PDGFRB; 10 µM i-CDK9): 100%
remaining binding at 1 µM (LYN; 1 µM i-CDK9): 100%
remaining binding at 10 µM (LYN; 10 µM i-CDK9): 81%
remaining binding at 1 µM (MTOR): 100%
% Retention on Solid Support (BTK; 1 µM i-CDK9): 100%
% Retention on Solid Support (BTK; 10 µM i-CDK9): 100%
remaining binding at 1 µM (MERTK; 1 µM i-CDK9): 100%
remaining binding at 10 µM (MERTK; 10 µM i-CDK9): 60%
remaining binding at 1 µM (CSNK1D; 1 µM i-CDK9): 47%
remaining binding at 10 µM (CSNK1D; 10 µM i-CDK9): 33%
remaining binding at 1 µM (AKT1; 1 µM i-CDK9): 100%
remaining binding at 10 µM (AKT1; 10 µM i-CDK9): 100%
remaining binding at 1 µM (VRK2): 100%
% Retention on Solid Support (BMPR2; 1 µM i-CDK9): 100%
% Retention on Solid Support (BMPR2; 10 µM i-CDK9): 100%
remaining binding at 1 µM (HIPK3; 1 µM i-CDK9): 100%
remaining binding at 10 µM (HIPK3; 10 µM i-CDK9): 89%
% Retention on Solid Support (MET(M1250T); 1 µM i-CDK9): 86%
% Retention on Solid Support (MET(M1250T); 10 µM i-CDK9): 100%
remaining binding at 1 µM (ERN1; 1 µM i-CDK9): 100%
remaining binding at 10 µM (ERN1; 10 µM i-CDK9): 62%
